Measured values as given in the OPERA property sets (Mansouri et al. 2018).

| logP | Compound |
| --- | --- |
| 4.95 | O=C(Nc1ccc2nn(C3CCCC3)nc2c1)c1ccc(C(F)(F)F)cc1 |
| 4.11 | O=C(Nc1ccc2nn(C3CCCC3)nc2c1)c1ccc(Cl)cc1 |
| 4.12 | O=C(Nc1ccc2nn(C3CCCC3)nc2c1)C(Cl)(Cl)Cl |
| 3.82 | O=[N+]([O-])c1ccc(S(=O)(=O)Nc2ccc3nn(C4CCCC4)nc3c2)cc1 |
| 2.44 | CS(=O)(=O)Nc1ccc2nn(C3CCCC3)nc2c1 |
| 2.78 | O=C(CCl)Nc1ccc2nn(C3CCCC3)nc2c1 |
| 2.48 | Nc1ccc(S(=O)(=O)Nc2ccc3nn(C4CCCC4)nc3c2)cc1 |
| 3.4 | O=C(Nc1ccc2nn(C3CCCC3)nc2c1)C(Cl)Cl |
| 3.4 | CC(C)(C)C(=O)Nc1ccc2nn(C3CCCC3)nc2c1 |
| 5.32 | O=C(Nc1ccc2nn(C3CCCC3)nc2c1)c1ccc(Cl)c(Cl)c1 |
| 3.85 | O=C(Nc1ccc2nn(C3CCCC3)nc2c1)c1ccccc1 |
| 4.28 | CC(C)COC(=O)Nc1ccc2nn(C3CCCC3)nc2c1 |
| 2.45 | CC(=O)Nc1ccc2nn(C3CCCC3)nc2c1 |
| 3.87 | COc1cc(C(=O)Nc2ccc3nn(C4CCCC4)nc3c2)cc(OC)c1OC |
| 3.75 | O=C(Nc1ccc2nn(C3CCCC3)nc2c1)c1ccc([N+](=O)[O-])cc1 |
| 3.91 | Cc1ccc(S(=O)(=O)Nc2ccc3nn(C4CCCC4)nc3c2)cc1 |
| 3.43 | CCOC(=O)Nc1ccc2nn(C3CCCC3)nc2c1 |
